Results from US20170233413A1, “SUBSTITUTED ANNULATED PYRIMIDINES AND USE THEREOF” (Bayer Pharma Aktiengesellschaft, priority 2014, published 2017).

Tests used:
[1] = target: T1, human phosphodiesterase 5 (PDE 5) (Homo sapiens, UniProt O76074); assay: Inhibition of human phosphodiesterase 5 (PDE 5); format: biochemical; conditions: PDE 5 preparation from human platelets; in some cases means of individual determinations
T1 construct: PDE 5 preparations are obtained from human platelets by disruption; from tissue; host or cells: human platelets
Outline: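 IC50 comes from percent inhibition over a 1:3 series with final levels of 4 to 0.0018 μM. Reaction: tritiated cGMP tracer (0.025 μCi) with platelet-derived, Mono Q-purified enzyme, 1 h at room temperature in Tris pH 7.5, under 70% turnover. Read-out by scintillation proximity beads.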

[2] = target: T2, recombinant guanylate cyclase reporter cell line (Rattus norvegicus, UniProt P19686+P20595); assay: Effect on a recombinant guanylate cyclase reporter cell line; format: cell-based; conditions: MEC = minimum effective concentration; in some cases means of individual determinations
T2 construct: expressed in transfected cells
T2 sequence (P19686 1-690): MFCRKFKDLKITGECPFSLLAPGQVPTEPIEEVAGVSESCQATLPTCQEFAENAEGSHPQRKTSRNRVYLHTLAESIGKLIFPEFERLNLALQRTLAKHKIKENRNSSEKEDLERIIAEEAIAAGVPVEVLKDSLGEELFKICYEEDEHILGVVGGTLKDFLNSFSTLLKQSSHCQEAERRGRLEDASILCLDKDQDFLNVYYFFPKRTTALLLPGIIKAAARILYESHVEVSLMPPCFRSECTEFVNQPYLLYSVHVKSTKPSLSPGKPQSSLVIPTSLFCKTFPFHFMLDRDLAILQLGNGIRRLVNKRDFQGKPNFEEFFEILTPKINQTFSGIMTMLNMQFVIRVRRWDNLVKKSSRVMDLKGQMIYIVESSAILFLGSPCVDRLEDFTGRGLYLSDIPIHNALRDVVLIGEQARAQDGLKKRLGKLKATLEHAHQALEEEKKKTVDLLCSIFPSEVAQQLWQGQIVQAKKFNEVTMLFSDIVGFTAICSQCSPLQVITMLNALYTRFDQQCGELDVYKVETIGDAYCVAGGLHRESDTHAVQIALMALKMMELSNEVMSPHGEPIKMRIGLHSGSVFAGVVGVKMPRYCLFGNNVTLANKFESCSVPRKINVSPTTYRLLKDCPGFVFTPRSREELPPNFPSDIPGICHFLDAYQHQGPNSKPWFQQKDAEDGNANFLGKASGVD
T2 sequence (P20595 1-619): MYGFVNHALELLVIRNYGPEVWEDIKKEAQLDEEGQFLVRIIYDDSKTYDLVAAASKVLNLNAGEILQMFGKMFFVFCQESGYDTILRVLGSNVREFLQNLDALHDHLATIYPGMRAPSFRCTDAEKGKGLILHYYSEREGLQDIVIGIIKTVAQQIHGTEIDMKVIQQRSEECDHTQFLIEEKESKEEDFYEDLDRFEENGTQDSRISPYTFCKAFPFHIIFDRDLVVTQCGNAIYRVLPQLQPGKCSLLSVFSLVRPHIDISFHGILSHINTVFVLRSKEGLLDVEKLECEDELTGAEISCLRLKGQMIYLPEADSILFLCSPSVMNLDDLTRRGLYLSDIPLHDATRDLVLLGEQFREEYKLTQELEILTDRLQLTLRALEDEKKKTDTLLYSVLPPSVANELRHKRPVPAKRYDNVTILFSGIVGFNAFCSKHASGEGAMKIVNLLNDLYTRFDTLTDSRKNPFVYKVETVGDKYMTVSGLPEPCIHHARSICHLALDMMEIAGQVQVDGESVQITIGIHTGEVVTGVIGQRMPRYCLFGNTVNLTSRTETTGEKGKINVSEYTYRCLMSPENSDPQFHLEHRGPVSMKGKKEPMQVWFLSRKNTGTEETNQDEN
Outline: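 Values are reported as MEC, sometimes averaged over individual determinations. The test system is a reporter cell line expressing recombinant rat guanylate cyclase.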

## CN(CC1CC1)C(=O)c1nc(-c2nn(Cc3ccccc3F)c3ncccc23)nc2c1C(C)(C)C(=O)N2 [Example 111, N-(cyclopropylmethyl)-2-[1-(2-fluorobenzyl)-1H-pyrazolo[3,4-b]pyridin-3-yl]-N,5,5-trimethyl-6-oxo-6,7-dihydro-5H-pyrrolo[2,3-d]pyrimidine-4-carboxamide]
[1]
  IC50: 710 nM
[2]
  MEC: 0.01 µM

## CC(C)N(C)C(=O)c1nc(-c2nn(Cc3ccccc3F)c3ncccc23)nc2c1C(C)(C)C(=O)N2 [Example 112, 2-[1-(2-fluorobenzyl)-1H-pyrazolo[3,4-b]pyridin-3-yl]-N,5,5-trimethyl-6-oxo-N-(propan-2-yl)-6,7-dihydro-5H-pyrrolo[2,3-d]pyrimidine-4-carboxamide]
[1]
  IC50: 93 nM
[2]
  MEC: 0.03 µM

## Cc1cccnc1NC(=O)c1nc(-c2nn(Cc3ccccc3F)c3ncccc23)nc2c1C(C)(C)C(=O)N2 [Example 113, 2-[1-(2-fluorobenzyl)-1H-pyrazolo[3,4-b]pyridin-3-yl]-5,5-dimethyl-N-(3-methylpyridin-2-yl)-6-oxo-6,7-dihydro-5H-pyrrolo[2,3-d]pyrimidine-4-carboxamide]
[1]
  IC50: 44 nM
[2]
  MEC: 0.1 µM

## CC1(C)C(=O)Nc2nc(-c3nn(Cc4ccccc4F)c4ncccc34)nc(C(=O)NCCO)c21 [Example 114, 2-[1-(2-fluorobenzyl)-1H-pyrazolo[3,4-b]pyridin-3-yl]-N-(2-hydroxyethyl)-5,5-dimethyl-6-oxo-6,7-dihydro-5H-pyrrolo[2,3-d]pyrimidine-4-carboxamide]
[1]
  IC50: 15 nM
[2]
  MEC: 0.3 µM

## CC1(C)C(=O)Nc2nc(-c3nn(Cc4ccccc4F)c4ncccc34)nc(C(=O)NCc3ccccc3)c21 [Example 115, N-benzyl-2-[1-(2-fluorobenzyl)-1H-pyrazolo[3,4-b]pyridin-3-yl]-5,5-dimethyl-6-oxo-6,7-dihydro-5H-pyrrolo[2,3-d]pyrimidine-4-carboxamide]
[1]
  IC50: 41 nM
[2]
  MEC: 0.1 µM

## CC1(C)C(=O)Nc2nc(-c3nn(Cc4ccccc4F)c4ncccc34)nc(C(=O)NCc3ccccn3)c21 [Example 117, 2-[1-(2-fluorobenzyl)-1H-pyrazolo[3,4-b]pyridin-3-yl]-5,5-dimethyl-6-oxo-N-(pyridin-2-ylmethyl)-6,7-dihydro-5H-pyrrolo[2,3-d]pyrimidine-4-carboxamide]
[1]
  IC50: 25 nM
[2]
  MEC: 0.1 µM

## CC1(C)C(=O)Nc2nc(-c3nn(Cc4ccccc4F)c4ncccc34)nc(C(=O)NCc3ccncc3)c21 [Example 118, 2-[1-(2-fluorobenzyl)-1H-pyrazolo[3,4-b]pyridin-3-yl]-5,5-dimethyl-6-oxo-N-(pyridin-4-ylmethyl)-6,7-dihydro-5H-pyrrolo[2,3-d]pyrimidine-4-carboxamide]
[1]
  IC50: 21 nM
[2]
  MEC: 0.1 µM

## Cc1ccncc1NC(=O)c1nc(-c2nn(Cc3ccccc3F)c3ncccc23)nc2c1C(C)(C)C(=O)N2 [Example 119, 2-[1-(2-fluorobenzyl)-1H-pyrazolo[3,4-b]pyridin-3-yl]-5,5-dimethyl-N-(4-methylpyridin-3-yl)-6-oxo-6,7-dihydro-5H-pyrrolo[2,3-d]pyrimidine-4-carboxamide]
[1]
  IC50: 10 nM
[2]
  MEC: 0.3 µM

## CN(CCO)C(=O)c1nc(-c2nn(Cc3ccccc3F)c3ncccc23)nc2c1C(C)(C)C(=O)N2 [Example 120, 2-[1-(2-fluorobenzyl)-1H-pyrazolo[3,4-b]pyridin-3-yl]-N-(2-hydroxyethyl)-N,5,5-trimethyl-6-oxo-6,7-dihydro-5H-pyrrolo[2,3-d]pyrimidine-4-carboxamide]
[1]
  IC50: 220 nM
[2]
  MEC: 0.1 µM

## CCCCNC(=O)c1nc(-c2nn(Cc3ccccc3F)c3ncccc23)nc2c1C(C)(C)C(=O)N2 [Example 121, N-butyl-2-[1-(2-fluorobenzyl)-1H-pyrazolo[3,4-b]pyridin-3-yl]-5,5-dimethyl-6-oxo-6,7-dihydro-5H-pyrrolo[2,3-d]pyrimidine-4-carboxamide]
[1]
  IC50: 27 nM
[2]
  MEC: 0.3 µM

## CC(C)CNC(=O)c1nc(-c2nn(Cc3ccccc3F)c3ncccc23)nc2c1C(C)(C)C(=O)N2 [Example 122, 2-[1-(2-fluorobenzyl)-1H-pyrazolo[3,4-b]pyridin-3-yl]-5,5-dimethyl-N-(2-methylpropyl)-6-oxo-6,7-dihydro-5H-pyrrolo[2,3-d]pyrimidine-4-carboxamide]
[1]
  IC50: 20 nM
[2]
  MEC: 0.1 µM

## CCOCCCNC(=O)c1nc(-c2nn(Cc3ccccc3F)c3ncccc23)nc2c1C(C)(C)C(=O)N2 [Example 123, N-(3-ethoxypropyl)-2-[1-(2-fluorobenzyl)-1H-pyrazolo[3,4-b]pyridin-3-yl]-5,5-dimethyl-6-oxo-6,7-dihydro-5H-pyrrolo[2,3-d]pyrimidine-4-carboxamide]
[1]
  IC50: 26 nM
[2]
  MEC: 0.1 µM

## CC1(C)C(=O)Nc2nc(-c3nn(Cc4ccccc4F)c4ncccc34)nc(C(=O)NC3CCCC3)c21 [Example 126, N-cyclopentyl-2-[1-(2-fluorobenzyl)-1H-pyrazolo[3,4-b]pyridin-3-yl]-5,5-dimethyl-6-oxo-6,7-dihydro-5H-pyrrolo[2,3-d]pyrimidine-4-carboxamide]
[1]
  IC50: 6 nM
[2]
  MEC: 0.3 µM

## COCCNC(=O)c1nc(-c2nn(Cc3ccccc3F)c3ncccc23)nc2c1C(C)(C)C(=O)N2 [Example 127, 2-[1-(2-fluorobenzyl)-1H-pyrazolo[3,4-b]pyridin-3-yl]-N-(2-methoxyethyl)-5,5-dimethyl-6-oxo-6,7-dihydro-5H-pyrrolo[2,3-d]pyrimidine-4-carboxamide]
[1]
  IC50: 16 nM
[2]
  MEC: 0.1 µM

## CN(C)CCNC(=O)c1nc(-c2nn(Cc3ccccc3F)c3ncccc23)nc2c1C(C)(C)C(=O)N2 [Example 128, N-[2-(dimethylamino)ethyl]-2-[1-(2-fluorobenzyl)-1H-pyrazolo[3,4-b]pyridin-3-yl]-5,5-dimethyl-6-oxo-6,7-dihydro-5H-pyrrolo[2,3-d]pyrimidine-4-carboxamide]
[1]
  IC50: 330 nM
[2]
  MEC: 1 µM

## CCNC(=O)c1nc(-c2nn(Cc3ccccc3F)c3ncccc23)nc2c1C(C)(C)C(=O)N2 [Example 129, N-ethyl-2-[1-(2-fluorobenzyl)-1H-pyrazolo[3,4-b]pyridin-3-yl]-5,5-dimethyl-6-oxo-6,7-dihydro-5H-pyrrolo[2,3-d]pyrimidine-4-carboxamide]
[1]
  IC50: 10 nM
[2]
  MEC: 0.1 µM

## CCCCCNC(=O)c1nc(-c2nn(Cc3ccccc3F)c3ncccc23)nc2c1C(C)(C)C(=O)N2 [Example 131, 2-[1-(2-Fluorobenzyl)-1H-pyrazolo[3,4-b]pyridin-3-yl]-5,5-dimethyl-6-oxo-N-pentyl-6,7-dihydro-5H-pyrrolo[2,3-d]pyrimidine-4-carboxamide]
[1]
  IC50: 38 nM
[2]
  MEC: 0.3 µM

## CC(C)CCNC(=O)c1nc(-c2nn(Cc3ccccc3F)c3ncccc23)nc2c1C(C)(C)C(=O)N2 [Example 132, 2-[1-(2-fluorobenzyl)-1H-pyrazolo[3,4-b]pyridin-3-yl]-5,5-dimethyl-N-(3-methylbutyl)-6-oxo-6,7-dihydro-5H-pyrrolo[2,3-d]pyrimidine-4-carboxamide]
[1]
  IC50: 33 nM
[2]
  MEC: 0.3 µM

## CC[C@H](C)NC(=O)c1nc(-c2nn(Cc3ccccc3F)c3ncccc23)nc2c1C(C)(C)C(=O)N2 [Example 134, N-[(2S)-butan-2-yl]-2-[1-(2-fluorobenzyl)-1H-pyrazolo[3,4-b]pyridin-3-yl]-5,5-dimethyl-6-oxo-6,7-dihydro-5H-pyrrolo[2,3-d]pyrimidine-4-carboxamide]
[1]
  IC50: 13 nM
[2]
  MEC: 0.3 µM
